Molecular target: T1, CCDC6-RET (Homo sapiens, UniProt P07949+Q16204+Q96SW2)
T1 construct: CCDC6 (natural N-terminal fusion partner, UniProt Q16204); endogenous in cells; host or cells: TPC-1 (parental, papillary thyroid carcinoma)
Assay: Cellular RET degradation, AlphaLISA, TPC-1 cell line
Type: cell-based
Settings: for Dmax: TPC1, human, 24 h, read-out: Cell Density TPC-1/CCDC6-RET Ymax %; for DC50: read-out: Cell Density TPC-1/CCDC6-RET DC50, half-maximal degradation concentration, TPC-1 (CCDC6-RET), 24 hrs
Procedure: Cellular RET degradation compound potency was determined using the bead-based luminescent amplification assay-AlphaLISA Surefire Ultra Detection Kit (Perkin-Elmer). The CCDC6-RET fusion expressing papillary thyroid carcinoma (TPC-1) cell line was selected for screening of potential degraders: Parental (TPC-1/CCDC6-RET). Cells were plated in 384 well culture plates (Greiner Bio-One) at 10,000 cells/well in 50 ul/well DMEM (Fisher Scientific) with 2% FBS serum (Gibco). […] Low normalization wells were media only and high normalization wells were cells treated with DMSO only. Treated cell plates were placed in an incubator at 37 °C and 5% CO2 for 24 hrs. At 24 hrs, cell media was removed by a FELIX automated liquid hander (Analytik Jena) and 25 ul of cell lysis buffer (provided in AlphaLisa kit) was added to each well. […] cell lysate were transferred into a 384-well microplate (Perkin Elmer) before addition of 2.5 ul AlphaLISA Acceptor Bead mix. The plates were sealed and kept at room temperature for 1 hr before addition of donor bead mixture. Donor bead addition was performed in the dark and incubated for >1 hr before AlphaLISA luminescence was measured on an Envision plate reader with an Alphascreen aperture at RT (excitation 680 nm, emission 615 nm). RET protein abundance (and therefore degradation) directly corresponds to luminescence intensity.
Intensities were normalized relative to the average values from 16 wells containing media alone (blank-low) and 16 wells containing cells +DMSO (high). % Degradation for each well was determined using the standard equation, where
DC50 (IC50) values for each compound tested are calculated by analyzing plots of % degradation versus compound concentration, and fitting to the standard 4-parameter logistic curve where,
DC50 values are calculated according to the relationship,
Compound replicates were performed in independent assays. Maximum degradation (YMax) was defined as the maximal % degradation value from the 4-parameter logistic equation, as previously described.

T1 sequence (Q16204+P07949 fused): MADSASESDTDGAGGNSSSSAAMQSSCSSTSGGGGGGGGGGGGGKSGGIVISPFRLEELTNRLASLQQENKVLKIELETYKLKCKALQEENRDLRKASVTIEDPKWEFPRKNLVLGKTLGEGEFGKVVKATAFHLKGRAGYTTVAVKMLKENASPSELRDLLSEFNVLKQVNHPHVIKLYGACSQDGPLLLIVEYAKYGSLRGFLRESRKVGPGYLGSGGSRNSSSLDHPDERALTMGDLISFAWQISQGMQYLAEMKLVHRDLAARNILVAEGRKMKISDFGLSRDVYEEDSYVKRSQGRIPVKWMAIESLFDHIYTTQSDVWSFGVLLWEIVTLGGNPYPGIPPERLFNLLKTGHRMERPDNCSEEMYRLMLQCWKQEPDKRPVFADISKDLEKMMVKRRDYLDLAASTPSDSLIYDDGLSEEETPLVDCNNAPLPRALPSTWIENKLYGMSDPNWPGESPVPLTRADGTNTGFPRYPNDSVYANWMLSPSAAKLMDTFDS
T1 sequence (Q96SW2 whole entry, the tested form may be a part): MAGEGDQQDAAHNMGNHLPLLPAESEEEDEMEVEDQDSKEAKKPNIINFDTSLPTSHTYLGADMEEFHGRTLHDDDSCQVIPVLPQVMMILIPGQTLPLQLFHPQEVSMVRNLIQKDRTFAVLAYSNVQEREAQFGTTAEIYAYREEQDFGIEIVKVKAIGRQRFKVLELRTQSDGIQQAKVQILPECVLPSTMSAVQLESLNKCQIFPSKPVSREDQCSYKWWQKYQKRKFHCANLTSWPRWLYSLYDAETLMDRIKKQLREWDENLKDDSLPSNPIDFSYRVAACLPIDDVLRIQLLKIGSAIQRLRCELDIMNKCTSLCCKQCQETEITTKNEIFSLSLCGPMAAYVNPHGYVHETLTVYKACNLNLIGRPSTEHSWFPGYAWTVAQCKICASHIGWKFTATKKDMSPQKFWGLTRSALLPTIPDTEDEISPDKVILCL
T1 sequence (Q16531 whole entry partner, the tested form may be a part): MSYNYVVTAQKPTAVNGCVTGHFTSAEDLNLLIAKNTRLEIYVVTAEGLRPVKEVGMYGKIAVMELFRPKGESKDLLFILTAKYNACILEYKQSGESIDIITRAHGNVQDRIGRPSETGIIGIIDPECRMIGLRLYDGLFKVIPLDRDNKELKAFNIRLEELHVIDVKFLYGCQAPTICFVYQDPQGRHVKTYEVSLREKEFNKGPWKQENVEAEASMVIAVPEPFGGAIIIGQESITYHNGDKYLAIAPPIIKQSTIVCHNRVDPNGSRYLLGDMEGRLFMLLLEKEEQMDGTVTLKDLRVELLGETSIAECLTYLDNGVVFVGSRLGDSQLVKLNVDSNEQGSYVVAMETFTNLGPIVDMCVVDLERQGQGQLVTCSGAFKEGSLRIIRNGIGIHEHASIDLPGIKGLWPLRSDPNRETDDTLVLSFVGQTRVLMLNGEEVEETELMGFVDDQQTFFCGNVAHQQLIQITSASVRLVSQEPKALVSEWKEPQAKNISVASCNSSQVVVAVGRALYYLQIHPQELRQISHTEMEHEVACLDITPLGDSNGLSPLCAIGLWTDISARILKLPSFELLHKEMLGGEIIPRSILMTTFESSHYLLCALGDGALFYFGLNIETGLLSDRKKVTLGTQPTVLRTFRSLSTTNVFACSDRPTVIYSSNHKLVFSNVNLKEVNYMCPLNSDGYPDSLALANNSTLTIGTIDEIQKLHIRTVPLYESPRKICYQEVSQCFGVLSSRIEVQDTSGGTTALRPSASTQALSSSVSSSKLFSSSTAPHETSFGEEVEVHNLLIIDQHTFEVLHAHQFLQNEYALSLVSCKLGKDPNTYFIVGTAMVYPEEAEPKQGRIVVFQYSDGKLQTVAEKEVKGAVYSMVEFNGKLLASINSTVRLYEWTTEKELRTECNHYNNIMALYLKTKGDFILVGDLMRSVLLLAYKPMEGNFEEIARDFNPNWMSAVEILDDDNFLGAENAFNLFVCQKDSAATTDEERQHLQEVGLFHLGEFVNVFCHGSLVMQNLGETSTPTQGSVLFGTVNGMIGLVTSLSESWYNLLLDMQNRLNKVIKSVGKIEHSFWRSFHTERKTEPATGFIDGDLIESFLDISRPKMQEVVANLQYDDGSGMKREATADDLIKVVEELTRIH

Structure (SMILES) | Dmax | DC50
CCOc1cc(-c2ccc(N3CCC(CN4CCN(CCC(=O)N5CCC6(CC5)CCN(c5ccc7c(c5)CN(C5CCC(=O)NC5=O)C7=O)CC6)CC4)(NC(=O)c4cc(F)ccc4F)CC3)nc2)c2c(C#N)cnn2c1 (stereo not drawn) [Example 90, N-[1-(5-{3-cyano-6-ethoxypyrazolo[1,5-a]pyridin-4-yl}pyridin-2-yl)-4-{[4-(3-{9-[2-(2,6-dioxopiperidin-3-yl)-1-oxo-2,3-dihydro-1H-isoindol-5-yl]-3,9-diazaspiro[5.5]undecan-3-yl}-3-oxopropyl)piperazin-1-yl]methyl}piperidin-4-yl]-2,5-difluorobenzamide] | > 90% | 10 to 100 nM
CCOc1cc(-c2ccc(N3CCC(COCc4cn(CCCCN5CCN(c6ccc7c(c6)CN(C6CCC(=O)NC6=O)C7=O)CC5)nn4)(NC(=O)c4cc(F)ccc4F)CC3)nc2)c2c(C#N)cnn2c1 (stereo not drawn) [Example 48, N-[1-[5-(3-cyano-6-ethoxy-pyrazolo[1,5-a]pyridin-4-yl)-2-pyridyl]-4-[[1-[4-[4-[2-(2,6-dioxo-3-piperidyl)-1-oxo-isoindolin-5-yl]piperazin-1-yl]butyl]triazol-4-yl]methoxymethyl]-4-piperidyl]-2,5-difluoro-benzamide] | > 90% | 2 to 10 nM
CCOc1cc(-c2ccc(N3CCC(CN4CCN(C(=O)CCN5CCC6(CC5)CCN(c5ccc7c(c5)CN(C5CCC(=O)NC5=O)C7=O)CC6)CC4)(NC(=O)c4cc(F)ccc4F)CC3)nc2)c2c(C#N)cnn2c1 (stereo not drawn) [Example 91, N-[1-(5-{3-cyano-6-ethoxypyrazolo[1,5-a]pyridin-4-yl}pyridin-2-yl)-4-{[4-(3-{9-[2-(2,6-dioxopiperidin-3-yl)-1-oxo-2,3-dihydro-1H-isoindol-5-yl]-3,9-diazaspiro[5.5]undecan-3-yl}propanoyl)piperazin-1-yl]methyl}piperidin-4-yl]-2,5-difluorobenzamide] | 60 to 90% | < 2 nM
CCOc1cc(-c2ccc(N3CCC(CN4CCC5(CC4)CCN(C(=O)c4ccc6c(c4)C(=O)N(C4CCC(=O)NC4=O)C6)CC5)(NC(=O)c4cc(F)ccc4F)CC3)nc2)c2c(C#N)cnn2c1 (stereo not drawn) [Example 96, N-[1-(5-{3-cyano-6-ethoxypyrazolo[1,5-a]pyridin-4-yl}pyridin-2-yl)-4-({9-[2-(2,6-dioxopiperidin-3-yl)-3-oxo-2,3-dihydro-1H-isoindole-5-carbonyl]-3,9-diazaspiro[5.5]undecan-3-yl}methyl)piperidin-4-yl]-2,5-difluorobenzamide] | 60 to 90% | 10 to 100 nM
CCOc1cc(-c2ccc(N3CCC(COCc4cn(CCCN5CCN(c6ccc7c(c6)CN(C6CCC(=O)NC6=O)C7=O)CC5)nn4)(NC(=O)c4cc(F)ccc4F)CC3)nc2)c2c(C#N)cnn2c1 (stereo not drawn) [Example 50, N-(1-(5-(3-cyano-6-ethoxypyrazolo[1,5-a]pyridin-4-yl)pyridin-2-yl)-4-(((1-(3-(4-(2-(2,6-dioxopiperidin-3-yl)-1-oxoisoindolin-5-yl)piperazin-1-yl)propyl)-1H-1,2,3-triazol-4-yl)methoxy)methyl)piperidin-4-yl)-2,5-difluorobenzamide] | 60 to 90% | 2 to 10 nM
CCOc1cc(-c2ccc(N3CCC(CN(C)C(=O)CCCCCCN4CCN(c5ccc6c(c5)C(=O)N(C5CCC(=O)NC5=O)C6)CC4)(NC(=O)c4cc(F)ccc4F)CC3)nc2)c2c(C#N)cnn2c1 (stereo not drawn) [Example 143, N-[1-(5-{3-cyano-6-ethoxypyrazolo[1,5-a]pyridin-4-yl}pyridin-2-yl)-4-[(7-{4-[2-(2,6-dioxopiperidin-3-yl)-3-oxo-2,3-dihydro-1H-isoindol-5-yl]piperazin-1-yl}-N-methylheptanamido)methyl]piperidin-4-yl]-2,5-difluorobenzamide] | > 90% | 2 to 10 nM
CCOc1cc(-c2ccc(N3CCC(CN(C)C(=O)CCCCCCN4CCN(c5ccc6c(c5)CN(C5CCC(=O)NC5=O)C6=O)CC4)(NC(=O)c4cc(F)ccc4F)CC3)nc2)c2c(C#N)cnn2c1 (stereo not drawn) [Example 137, N-[1-(5-{3-cyano-6-ethoxypyrazolo[1,5-a]pyridin-4-yl}pyridin-2-yl)-4-[(7-{4-[2-(2,6-dioxopiperidin-3-yl)-1-oxo-2,3-dihydro-1H-isoindol-5-yl]piperazin-1-yl}-N-methylheptanamido)methyl]piperidin-4-yl]-2,5-difluorobenzamide] | > 90% | 2 to 10 nM
CCOc1cc(-c2ccc(N3CCC(COCC(=O)NCCCCCCN4CCN(c5ccc6c(c5)CN(C5CCC(=O)NC5=O)C6=O)CC4)(NC(=O)c4cc(F)ccc4F)CC3)nc2)c2c(C#N)cnn2c1 (stereo not drawn) [Example 38, N-[1-[5-(3-cyano-6-ethoxy-pyrazolo[1,5-a]pyridin-4-yl)-2-pyridyl]-4-[[2-[6-[4-[2-(2,6-dioxo-3-piperidyl)-1-oxo-isoindolin-5-yl]piperazin-1-yl]hexylamino]-2-oxo-ethoxy]methyl]-4-piperidyl]-2,5-difluoro-benzamide] | > 90% | < 2 nM
CCOc1cc(-c2ccc(N3CCC(CN4CCN(C(=O)CCN5CCC(c6ccc7c(c6)C(=O)N(C6CCC(=O)NC6=O)C7)CC5)CC4)CC3)nc2)c2c(C#N)cnn2c1 (stereo not drawn) [Example 126, 4-[6-(4-{[4-(3-{4-[2-(2,6-dioxopiperidin-3-yl)-3-oxo-2,3-dihydro-1H-isoindol-5-yl]piperidin-1-yl}propanoyl)piperazin-1-yl]methyl}piperidin-1-yl)pyridin-3-yl]-6-ethoxypyrazolo[1,5-a]pyridine-3-carbonitrile] | 60 to 90% | 100 to 2000 nM
CCOc1cc(-c2ccc(N3CCC(COCCN4CCN(C(=O)CCCCN5CCN(c6ccc7c(c6)CN(C6CCC(=O)NC6=O)C7=O)CC5)CC4)(NC(=O)c4cc(F)ccc4F)CC3)nc2)c2c(C#N)cnn2c1 (stereo not drawn) [Example 35, N-[1-[5-(3-cyano-6-ethoxy-pyrazolo[1,5-a]pyridin-4-yl)-2-pyridyl]-4-[2-[4-[5-[4-[2-(2,6-dioxo-3-piperidyl)-1-oxo-isoindolin-5-yl]piperazin-1-yl]pentanoyl]piperazin-1-yl]ethoxymethyl]-4-piperidyl]-2,5-difluoro-benzamide] | > 90% | 10 to 100 nM

Other lines, results leading:

Dmax | DC50 | Structure (SMILES)
60 to 90% | 2 to 10 nM | CCOc1cc(-c2ccc(N3CCC(NC(=O)c4cc(F)ccc4F)(C(=O)NCCN4CCC(c5ccc6c(c5)CN(C5CCC(=O)NC5=O)C6=O)CC4)CC3)nc2)c2c(C#N)cnn2c1 (stereo not drawn) [Example 156, 1-(5-{3-cyano-6-ethoxypyrazolo[1,5-a]pyridin-4-yl}pyridin-2-yl)-4-(2,5-difluorobenzamido)-N-(2-{4-[2-(2,6-dioxopiperidin-3-yl)-1-oxo-2,3-dihydro-1H-isoindol-5-yl]piperidin-1-yl}ethyl)piperidine-4-carboxamide]
> 90% | 2 to 10 nM | CCOc1cc(-c2ccc(N3CCC(CN4CCN(C(=O)CN5CCN(c6ccc7c(c6)CN(C6CCC(=O)NC6=O)C7=O)CC5)CC4)(NC(=O)c4cc(F)ccc4F)CC3)nc2)c2c(C#N)cnn2c1 (stereo not drawn) [Example 6, N-(1-(5-(3-cyano-6-ethoxypyrazolo[1,5-a]pyridin-4-yl)pyridin-2-yl)-4-((4-(2-(4-(2-(2,6-dioxopiperidin-3-yl)-1-oxoisoindolin-5-yl)piperazin-1-yl)acetyl)piperazin-1-yl)methyl)piperidin-4-yl)-2,5-difluorobenzamide]
60 to 90% | 2 to 10 nM | CCOc1cc(-c2ccc(N3CCC(CN4CCN(C(=O)CCN5CCC(Oc6ccc7c(c6)CN(C6CCC(=O)NC6=O)C7=O)CC5)CC4)(NC(=O)c4cc(F)ccc4F)CC3)nc2)c2c(C#N)cnn2c1 (stereo not drawn) [Example 118, N-[1-(5-{3-cyano-6-ethoxypyrazolo[1,5-a]pyridin-4-yl}pyridin-2-yl)-4-({4-[3-(4-{[2-(2,6-dioxopiperidin-3-yl)-1-oxo-2,3-dihydro-1H-isoindol-5-yl]oxy}piperidin-1-yl)propanoyl]piperazin-1-yl}methyl)piperidin-4-yl]-2,5-difluorobenzamide]
60 to 90% | 10 to 100 nM | CCOc1cc(-c2ccc(N3CCC(NC(=O)c4cc(F)ccc4F)(C(=O)NCCCCN4CCC(c5ccc6c(c5)C(=O)N(C5CCC(=O)NC5=O)C6)CC4)CC3)nc2)c2c(C#N)cnn2c1 (stereo not drawn) [Example 162, 1-(5-{3-cyano-6-ethoxypyrazolo[1,5-a]pyridin-4-yl}pyridin-2-yl)-4-(2,5-difluorobenzamido)-N-(4-{4-[2-(2,6-dioxopiperidin-3-yl)-3-oxo-2,3-dihydro-1H-isoindol-5-yl]piperidin-1-yl}butyl)piperidine-4-carboxamide]
60 to 90% | 2 to 10 nM | CCOc1cc(-c2ccc(N3CCC(Cc4ccccc4)(NC(=O)N4CCC(CN5CCC(c6ccc7c(c6)C(=O)N(C6CCC(=O)NC6=O)C7)CC5)CC4)CC3)nc2)c2c(C#N)cnn2c1 (stereo not drawn) [Example 55]
